According to ChEMBL document CHEMBL1201862, “PubChem BioAssay data set” (2004):
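Cultured in 96-well plates, cells were exposed to test compound for 48 hours across five concentrations. The concentration for 50% growth inhibition is given as GI50.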 Active and inactive are the calls of the source. Cut-off read from the data, not from the text of the source: active = GI50 up to about 1.1 µM and inactive = higher.

Key:
Assay in all cases: NCI tumour cell line growth inhibition, 48 h
[1] = tested on: HCC 2998
[2] = tested on: KM12
[3] = tested on: TK-10
[4] = tested on: OVCAR-8
[5] = tested on: SK-MEL-5
[6] = tested on: MDA-MB-231
[7] = tested on: UACC-62
[8] = tested on: SF-295
[9] = tested on: HT-29
[10] = tested on: OVCAR-4
[11] = tested on: PC-3
[12] = tested on: OVCAR-3
[13] = tested on: 786-0
[14] = tested on: UO-31
[15] = tested on: SK-MEL-2
[16] = tested on: SF-268
[17] = tested on: RPMI-8226
[18] = tested on: RXF 393
[19] = tested on: LOX IMVI
[20] = tested on: CCRF-CEM

SMILES | GI50 [1] | GI50 [2] | GI50 [3] | GI50 [4] | GI50 [5] | GI50 [6] | GI50 [7] | GI50 [8] | GI50 [9] | GI50 [10] | GI50 [11] | GI50 [12] | GI50 [13] | GI50 [14] | GI50 [15] | GI50 [16] | GI50 [17] | GI50 [18] | GI50 [19] | GI50 [20]
Cc1c(C(=O)O)sc2nc[nH]c(=O)c12 | > 100 µM (inactive) | > 100 µM (inactive) | > 100 µM (inactive) | > 100 µM (inactive) | > 100 µM (inactive) | > 100 µM (inactive) | > 100 µM (inactive) | > 100 µM (inactive) | > 100 µM (inactive) | > 100 µM (inactive) | > 100 µM (inactive) | > 100 µM (inactive) | > 100 µM (inactive) | > 100 µM (inactive) | > 100 µM (inactive) | > 100 µM (inactive) | > 100 µM (inactive) | > 100 µM (inactive) | > 100 µM (inactive) | –
OC(C1CO1)C(O)C1CO1 (stereo not given) | 44.6 µM (inactive) | 87.9 µM (inactive) | 86.3 µM (inactive) | 55.2 µM (inactive) | 29.1 µM (inactive) | 132 µM (inactive) | 9.27 µM (inactive) | – | 63.5 µM (inactive) | 84.9 µM (inactive) | 39.8 µM (inactive) | 70.3 µM (inactive) | 8.69 µM (inactive) | 48.5 µM (inactive) | 61.1 µM (inactive) | – | 69 µM (inactive) | 56.1 µM (inactive) | 15.7 µM (inactive) | 3.71 µM (inactive)
CC(C)(C)C(=O)C(Cc1ccccc1)C(=O)C(C)(C)C | > 100 µM (inactive) | > 100 µM (inactive) | > 100 µM (inactive) | > 100 µM (inactive) | > 100 µM (inactive) | > 100 µM (inactive) | – | > 100 µM (inactive) | 39.4 µM (inactive) | 66.1 µM (inactive) | 46.7 µM (inactive) | 55 µM (inactive) | > 100 µM (inactive) | 81.7 µM (inactive) | > 100 µM (inactive) | > 100 µM (inactive) | 37.4 µM (inactive) | 98.6 µM (inactive) | > 100 µM (inactive) | 39.6 µM (inactive)
CCN(CC)CC(O)CNc1ccc(NCC2CO2)c2c1C(=O)c1ccccc1C2=O (stereo not given) | 1.19 µM (inactive) | 0.294 µM (active) | 2.29 µM (inactive) | 0.0661 µM (active) | 0.447 µM (active) | 0.536 µM (active) | 0.56 µM (active) | 1.05 µM (active) | 0.553 µM (active) | 1.18 µM (inactive) | 0.74 µM (active) | 0.46 µM (active) | 0.186 µM (active) | 0.594 µM (active) | 0.226 µM (active) | 0.0619 µM (active) | 0.614 µM (active) | 0.397 µM (active) | < 0.01 µM (active) | –
CCOP(=O)(OCC)/C(=C/c1ccccc1)CC(C)=O | > 100 µM (inactive) | > 100 µM (inactive) | > 100 µM (inactive) | > 100 µM (inactive) | > 100 µM (inactive) | > 100 µM (inactive) | > 100 µM (inactive) | > 100 µM (inactive) | > 100 µM (inactive) | > 100 µM (inactive) | > 100 µM (inactive) | > 100 µM (inactive) | > 100 µM (inactive) | > 100 µM (inactive) | > 100 µM (inactive) | > 100 µM (inactive) | – | > 100 µM (inactive) | > 100 µM (inactive) | > 100 µM (inactive)
Cn1c2ccccc2c2cc(N3CCCC3)c3c(c21)C(=O)N(c1ccccc1)C3=O | > 100 µM (inactive) | > 100 µM (inactive) | > 100 µM (inactive) | > 100 µM (inactive) | > 100 µM (inactive) | 66.4 µM (inactive) | 56.8 µM (inactive) | > 100 µM (inactive) | > 100 µM (inactive) | 38.9 µM (inactive) | > 100 µM (inactive) | > 100 µM (inactive) | 33.8 µM (inactive) | > 100 µM (inactive) | – | 88.1 µM (inactive) | > 100 µM (inactive) | 32.5 µM (inactive) | > 100 µM (inactive) | > 100 µM (inactive)
COC(=O)[C@@H](Cc1ccccc1)NNC(=O)OC(C)(C)C | > 100 µM (inactive) | > 100 µM (inactive) | > 100 µM (inactive) | > 100 µM (inactive) | > 100 µM (inactive) | > 100 µM (inactive) | > 100 µM (inactive) | > 100 µM (inactive) | – | > 100 µM (inactive) | > 100 µM (inactive) | > 100 µM (inactive) | > 100 µM (inactive) | – | – | > 100 µM (inactive) | > 100 µM (inactive) | > 100 µM (inactive) | > 100 µM (inactive) | > 100 µM (inactive)
